From paper PMC10816934, “Targeting the Melanocortin 1 Receptor in Melanoma: Biological Activity of α-MSH–Peptide Conjugates” (International Journal of Molecular Sciences, 2024)
Square brackets hold non-standard residues; d marks the D form. Peptide text beside a SMILES is read from it. * marks the point of attachment. Daunorubicin(13-NOCH2CO) = COc1cccc2c1C(=O)c1c(O)c3c(c(O)c1C2=O)C[C@@](O)(C(C)=NOCC(=O)*)C[C@@H]3O[C@H]1C[C@H](N)[C@H](O)[C@H](C)O1; Nle = CCCC[C@H](N)C(=O)O

Legend:
[1] = test system: OCM-1 human uveal melanoma tumor in male NOD-SCID mice; assay: In vivo tumor growth inhibition, OCM-1 xenograft; parameters: species or system mouse
Procedure: In the next experiment, the murine xenograft melanoma model establishment studies were performed using 8–12-week-old male NOD-SCID mice. For selection of the most suitable tumor model, three cell lines were then inoculated subcutaneously, OCM-1, SK-MEL-202, and WM983A. Cells were injected in a 0.1 mL RPMI-1640 basic medium in a concentration of 1.5·× 10^6 cells/mL, and the tumor growth and weight of mice were monitored 2–3 times per week. Subsequently, the antitumor effects of the Dau–α-MSH conjugates were determined in a mouse xenograft melanoma model selected as described above. Once the tumor volume reached 60 mm^3, mice were randomized and assigned to different groups for each treatment: 0.9% saline as a control, free daunomycin, Conj2 and Conj4. Treatments were injected intraperitoneally every fifth day, three times in total (daunomycin dosage of 5 mg/kg in case of Conj2, 10 mg/kg for Conj4, respectively, which was determined based on the toxicity tests, and 1 mg/kg were used for free drug–MTD). The weight and tumor size of mice were monitored during the whole experiment. On Day 33, mice were euthanized, and the primary tumor, heart, lung, liver, and spleen were harvested and stored in 4% formalin (Molar Chemicals, Halásztelek, Hungary). Liver weight was measured for the calculation of the toxicity of conjugates and daunomycin.

[2] = test system: SK-MEL-202 cells; assay: In vitro cytostatic effect, PrestoBlue assay; type: cell-based, human; settings: SK-MEL-202; PrestoBlue; 0.003–200 μM in serum-free medium 72 h; mean ± SEM of three independent experiments
Source text: (§1) The following cell cultures were used for the biological evaluation of the synthetic melanoma-specific peptide–drug (Dau–α-MSH) conjugates: A2058 (human skin melanoma, CVCL_1059), M24 (human metastatic skin melanoma, CVCL_D032), OCM-1 (human ocular choroidal melanoma-1, CVCL_6934), OCM-3 (human ocular choroidal melanoma-3, CVCL_6937), WM983A (human metastatic skin melanoma, CVCL_6808), WM983B (human metastatic skin melanoma CVCL_6809), SK-MEL-202 (human skin melanoma, ATCC HTB-68) and B16 (mouse melanoma, ATCC: CRL-6475). Cells were maintained in RPMI-1640 (Lonza, Basel, Switzerland), supplied with 10% FBS (fetal bovine serum; BioSera, Nuaille, France), L-glutamine, and 1% penicillin–streptomycin (from 10 000 units penicillin and 10 mg streptomycin/mL, Gibco, Dublin, Ireland) at 37 °C in a 5% CO2 atmosphere. No mycoplasma contamination was detected in the cell cultures.
(§2) The in vitro cytostatic effect of the Dau–α-MSH conjugate with optimized sequence (Conj4) was investigated and compared with Conj2 by PrestoBlue assay using human melanoma cell cultures with different origins. For determination of the cytostatic effect of the conjugates, the cells were treated with the compounds at 0.003–200 μM concentration range dissolved in the corresponding serum-free medium for 72 h. After the treatment, the PrestoBlue assay (purchased from Invitrogen (Waltham, MA, USA) was carried out to determine the IC50 values of the compounds. Based on the IC50 values, we also determined the targeting index (TI) of the conjugates using the following equation [58]: TI=IC50neg/IC50posconjugate/IC50neg/IC50posfree drug

[3] = test system: OCM-3 cells; assay: In vitro cytostatic effect, PrestoBlue assay; type: cell-based, human; settings: OCM-3, PrestoBlue, 0.003–200 μM in serum-free medium 72 h, mean ± SEM of three independent experiments
Source text: as §1, §2

[4] = test system: WM983B cells; assay: In vitro cytostatic effect, PrestoBlue assay; type: cell-based, human; settings: WM983B, PrestoBlue, 0.003–200 μM in serum-free medium 72 h, mean ± SEM of three independent experiments
Source text: as §1, §2

[5] = test system: OCM-1 cells; assay: In vitro cytostatic effect, PrestoBlue assay; type: cell-based, human; settings: OCM-1, PrestoBlue, 0.003–200 μM in serum-free medium 72 h, mean ± SEM of three independent experiments
Source text: as §1, §2

[6] = test system: A2058 cells; assay: In vitro cytostatic effect, PrestoBlue assay; type: cell-based, human; settings: A2058; PrestoBlue; 0.003–200 μM in serum-free medium 72 h; mean ± SEM of three independent experiments
Source text: as §1, §2

[7] = test system: WM983A cells; assay: In vitro cytostatic effect, PrestoBlue assay; type: cell-based, human; settings: WM983A, PrestoBlue, 0.003–200 μM in serum-free medium 72 h, mean ± SEM of three independent experiments
Source text: as §1, §2

[8] = test system: B16 murine melanoma cell line; assay: In vitro antiproliferative activity, MTT assay; type: cell-based, mouse; settings: Mus musculus, MTT assay, 0.8–100 μM in serum-free medium 24 h, then 48 h culture, mean ± SD of two or three independent experiments
Source text: as §1
(§3) The in vitro cytostatic effect of Dau–α-MSH conjugates was determined by two different assays. The full-length Dau–α-MSH conjugates were investigated by MTT assay using human and murine melanoma cell cultures. For determination of the cytostatic effect of these conjugates, the cells were treated with the compounds at 0.8–100 μM concentration range dissolved in the corresponding serum-free media for 24 h. After incubation, the treating solutions were removed, the cells were washed two times with serum-free medium and cultured for 48 h in the appropriate serum-containing cell culture medium. On the fourth day, the MTT assay was carried out to determine the IC50 values of the compounds. IC50 is the concentration that inhibits cell proliferation by 50%. Nonlinear regression analysis was performed with Prism 6 software (GraphPad, La Jolla, CA, USA) to generate sigmoidal dose–response curves, from which the 50% inhibitory concentration (IC50) values of the compounds were calculated and presented as micromolar (µM) units. The experiments were done in triplicate, and each experiment was repeated twice.

[9] = test system: WM983B human melanoma cell line; assay: In vitro antiproliferative activity, MTT assay; type: cell-based; settings: Homo sapiens, MTT assay, 0.8–100 μM in serum-free medium 24 h, then 48 h culture, mean ± SD of two or three independent experiments
Source text: as §1, §3

[10] = test system: A2058 human melanoma cell line; assay: In vitro antiproliferative activity, MTT assay; type: cell-based; settings: Homo sapiens, MTT assay, 0.8–100 μM in serum-free medium 24 h, then 48 h culture, mean ± SD of two or three independent experiments
Source text: as §1, §3

[11] = test system: M24 human melanoma cell line; assay: In vitro antiproliferative activity, MTT assay; type: cell-based; settings: Homo sapiens, MTT assay, 0.8–100 μM in serum-free medium 24 h, then 48 h culture, mean ± SD of two or three independent experiments
Source text: as §1, §3

[12] = test system: subcutaneous B16 murine melanoma in C57BL/6 male mice; assay: In vivo antitumor effect, subcutaneous B16 melanoma allograft
Procedure: In the first experiment, B16 murine melanoma cells were subcutaneously (s.c.) injected into side of the latero-abdominal region of 35 C57BL/6 male mice (20–28 g), which murine strain is syngeneic for the B16 melanoma tumor cell line [59, 60], 6.5 ×·10^5 cells in a volume of 200 µL M199 medium was inoculated per animal. Mice were randomized in a stratified procedure considering two main factors. The primary factor was to obtain groups with the most equal tumor sizes, the secondary factor was to have groups in which the weight of mice are the most equal. The treatment started 9 days after cell inoculation when average tumor volume was 30 mm^3. Compounds were dissolved in saline solution (Teva, Debrecen, Hungary), and administered via i.p. injection in a volume of 0.1 mL per 10 g of bodyweight. […] Animal weight and tumor volumes were measured initially when the treatment started and at periodic intervals following treatment. A digital caliper was used to measure the longest (a) and the shortest diameter (b) of a given tumor. The tumor volume was calculated using the formula V = ab^2 × π/6, whereby a and b represent the measured parameters (length and width). Termination of the experiment was 20 days after cell inoculation, i.e., 12 days after treatment started, since the average volume of the tumors in the control group reached over 1800 mm^3. The mice from all groups were sacrificed by cervical dislocation after which their tumors were harvested and weighed for antitumor effect assessment. Antitumor effect of treatments was evaluated measuring the tumor volume and calculating the percentage of how much the tumor volume grew in comparison to the starting tumor volume which was set arbitrarily for all tumors as 100% at the start of treatment.

[13] = free drug 1 mg/kg i.p., group terminated on day 28
[14] = change compared to control group, minus = inhibition, conjugates 10 mg Dau content/kg, free Dau 1 mg/kg

`CCCC[C@H](NC(C)=O)C(=O)N[C@@H](CCC(=O)O)C(=O)N[C@@H](Cc1c[nH]cn1)C(=O)N[C@H](Cc1ccccc1)C(=O)N[C@@H](CCCNC(=N)N)C(=O)N[C@@H](Cc1c[nH]c2ccccc12)C(=O)NCC(=O)N[C@@H](CCCCNC(=O)CON=C(C)[C@]1(O)Cc2c(O)c3c(c(O)c2[C@@H](O[C@H]2C[C@H](N)[C@H](O)[C@H](C)O2)C1)C(=O)c1c(OC)cccc1C3=O)C(N)=O` [Conj4, Ac-NleEHfRWGK(Dau=Aoa)-NH2] (Ac-[Nle]EH[dF]RWGK(Daunorubicin(13-NOCH2CO))-NH2) was tested, and the “Normalized liver weight, value line 1” value ([1]; Table S2, single animal) was 5.23%, the “Normalized liver weight, value line 2” value ([1]; Table S2, single animal) was 4.34% and the “Normalized liver weight, value line 3” value ([1]; Table S2, single animal, line 3) was 4.47%. For the same compound, the “Normalized liver weight, value line 4” value ([1]; Table S2, single animal) was 4.50%, the “Normalized liver weight, value line 5” value ([1]; Table S2, single animal) was 5.35% and the “Normalized liver weight, value line 6” value ([1]; Table S2, single animal) was 4.70%. The “Normalized liver weight, value line 7” value ([1]; Table S2, single animal) was 5.11%, the “Normalized liver weight, line printed as "ave"” value ([1]; Table S2, value line 8) was 4.62% and the IC50 [2] was 2060 ± 100 nM. The IC50 [3] was 25470 ± 80 nM, the IC50 [4] was 10180 ± 60 nM and the IC50 [5] was 29680 ± 60 nM. It also gave an IC50 [6] of 7150 ± 70 nM and an IC50 [7] of 13500 ± 60 nM.

With `COc1cccc2c1C(=O)c1c(O)c3c(c(O)c1C2=O)C[C@@](O)(C(C)=O)C[C@@H]3O[C@H]1C[C@H](N)[C@H](O)[C@H](C)O1` [Dau, daunomycin, reference compound] the IC50 [8] was 26 ± 8 nM, the “Liver weight compared to the control” value ([1]; OCM-1-bearing NOD-SCID mice, Conj2 5 mg/kg, Conj4 10 mg/kg, daunomycin 1 mg/kg i.p., no significant toxicity) was 89.79% and the “Normalized liver weight, value line 1” value ([1]; Table S2, single animal) was 4.05%. The “Normalized liver weight, value line 2” value ([1]; Table S2, single animal) was 4.31%, the “Normalized liver weight, value line 4” value ([1]; Table S2, single animal) was 4.81% and the “Normalized liver weight, value line 5” value ([1]; Table S2, single animal) was 4.07%. For the same compound, the “Normalized liver weight, value line 6” value ([1]; Table S2, single animal) was 4.07%, the “Normalized liver weight, value line 7” value ([1]; Table S2, single animal) was 5.29% and the “Normalized liver weight, line printed as "relative to ctr"” value ([1]; Table S2, value line 9) was 5.00%. The “Toxicity (general condition of mice)” value [1, 13] was “high toxicity”, the “Tumor inhibition compared to the controls” value [1, 13] was “lack of tumor inhibition” and the IC50 ([3]; Homo sapiens) was 560 ± 50 nM. The IC50 ([4]; Homo sapiens) was 330 ± 50 nM, the IC50 ([5]; Homo sapiens) was 730 ± 60 nM and the IC50 ([7]; Homo sapiens) was 190 ± 60 nM. The IC50 [9] was 50 ± 23 nM, the IC50 [10] was 40 ± 7 nM and the IC50 [11] was 119 ± 25 nM. For the same compound, the “Increase of animal bodyweight at the end of the experiment in comparison to the start” value ([12]; B16-bearing C57BL/6 mice, conjugates 10 mg Dau content/kg i.p. days 9, 13, 15, 17, free Dau 1 mg/kg days 9, 17) was 7.6%, the “Tumor growth inhibition based on tumor weight, in comparison to the control group” value ([12]; after termination (day 20), conjugates 10 mg Dau content/kg, free Dau 1 mg/kg i.p.) was 17% and the “Animal body weight (Table S1)” value ([12]; change at end compared to start, minus = decrease, conjugates 10 mg Dau content/kg, free Dau 1 mg/kg) was “+7.6%”. For the same compound, the “Tumor weigh in % (Table S1)” value ([12]; change compared to control group, minus = decrease, conjugates 10 mg Dau content/kg, free Dau 1 mg/kg) was -17.0%, the “Tumor volume in % (Table S1)” value [12, 14] was “+58.8%” and the “Tumor volume in mm3 (Table S1)” value [12, 14] was -4.9%. The “Tumor growth inhibition based on tumor volume in mm^3, compared to control” value ([12]; end of experiment (day 20), conjugates 10 mg Dau content/kg i.p., free Dau 1 mg/kg) was 4.9%, the “Tumor volume in percentage (start set as 100%) increased in comparison to the control group” value ([12]; end of experiment, Conj1 10 mg Dau content/kg, free Dau 1 mg/kg i.p.) was 58.8% and the “Animals died during the experiment” value ([12]; seven animals per group, B16-bearing C57BL/6 mice) was 3 animals.
